Data set [1] is described as follows: Serum concentration (2): serum radioactivity after oral administration at several doses. The following applies: male rats, Mean ± S.D (n = 5).
The conditions of data set [2]: rat, in vivo. The protocol: Using these values of AUC(0-.infin.) and the doses applied, the bioavailability was calculated according to the following Equation 1. [formula]
A further data set concerns cardiac muscle cells. To be noted: cited from earlier work.
Data set [3] in a line: Weight and appearance on further drying. The data set is classed as physicochemical. The following applies: further 27 hours, 50° C., 90 mmHg. As for the experimental part: The anhydrous crystal of 5-Methyl-2-(1-piperazinyl) benzenesulfonic acid (10.00 g) and distilled water (30 ml) were added in a 100 ml round-bottomed flask and the mixture was stirred at 5° C. for 2 hours. The crystals were collected from the suspension by suction filtration and the crystals remained in the round-bottomed flask were recovered by washing with distilled water (3 ml). The crystals were combined and dried at 50° C. and 90 mmHg for 3 hours to give 5-methyl-2-(1-piperazinyl)benzenesulfonic acid monohydrate as white crystals (10.36 g, yield: 96.8%). After drying was further continued for 27 hours under the same conditions, the weight and appearance of the monohydrate were not changed. Water content measured by a Karl Fischer water content meter was 6.96%, which further verified that the product was the monohydrate (calculated content: 6.56%).
The anhydrous crystal of 5-Methyl-2-(1-piperazinyl) benzenesulfonic acid (10.00 g) and distilled water (75 ml) were charged in a 200 ml round-bottomed flask and the crystals were thoroughly dissolved by heating under reflux with stirring. The solution was then cooled to 5° C. with stirring and stirring was further continued for 2 hours at the same temperature. […] Water content measured by a Karl Fischer water content meter was 6.75%, which further verified that the product was the monohydrate. […]

A short description of data set [4]: Hygroscopic property: weight change on storage in a desiccator. The data set is classed as physicochemical. The following applies: 20° C. As for the experimental part: Each of the samples of the monohydrate of the present invention was put in a desiccator adjusted at a relative humidity of 57% or 98%, and then stored at 20° C. for 16 days. Weight changes during the period of time were measured. As controls, the anhydrous crystals obtained in the above process (a) in Example 1 were also stored in a desiccator adjusted at a relative humidity of 57% or 98%, and weight changes were measured. The results are shown in Table 2 [in the table, each of the values (%) represents a weight increase]. […] On the other hand, as for the anhydrous crystal, the weight increase of about 7% was observed, which corresponded to about 1 mole of the water of crystal.

A short description of data set [5]: Thermal analysis (TG-DTA). The following applies: dry nitrogen, 5° C./min. The data set is classed as physicochemical. As for the experimental part:
The anhydrous crystal described in Example 1 of the Japanese Patent Unexamined Publication (KOKAI) No.(Hei)3-7263/1991 and the monohydrate of the present invention were subjected to thermal analysis by a thermal analyzer (RIGAKU TAS-200) under dry nitrogen atmosphere using each of 10 mg of samples. The measurements were carried out in the temperature range of from 50 to 400° C. applying the temperature raising rate of 5° C./min. As the anhydrous crystals, those obtained in the above process (a) was used.

The conditions of data set [6]: rat, in vivo. This is another data set of the same source.
A short description of data set [7]: Stability and release of water of crystal of the monohydrate. The data set is classed as physicochemical. To be noted: for stability (in words): long period / room temperature / once formed, monohydrate.

Entries after “also recorded” stand apart in the source; their conditions may differ. Read-outs that look alike come from different tables or passages of the source.

For orientation: AUC means the area under the concentration-time curve, a measure of exposure. Take `Cc1ccc(N2CCNCC2)c(S(=O)(=O)O)c1` [labeled compound, labeled 2-(1-piperazinyl)-5-methylbenzenesulfonic acid monohydrate]: the area under the curve (AUC) in data set [1] (oral 0.1 mg/kg) is 64.1 ± 12.3 ng·h/mL; in data set [1] (oral 0.3 mg/kg), 270.5 ± 88.4 ng·h/mL; in data set [1] (oral 1 mg/kg) it was 574.4 ± 113.2 ng·h/mL; in data set [1] (oral 3 mg/kg), 1769.2 ± 498.4 ng·h/mL. The C max in data set [1] (oral 0.1 mg/kg) was found to be 16.2 ± 2.6 ng/mL; in data set [1] (oral 0.3 mg/kg) it was 69.0 ± 17.8 ng/mL; in data set [1] (oral 1 mg/kg), 171.6 ± 31.1 ng/mL; in data set [1] (oral 3 mg/kg), 501.5 ± 133.8 ng/mL. For the same compound, the T max in data set [1] (oral 0.1 mg/kg) was found to be 2.2 ± 0.5 h; in data set [1] (oral 0.3 mg/kg), 2.2 ± 0.5 h; in data set [1] (oral 1 mg/kg), 1.8 ± 0.5 h; in data set [1] (oral 3 mg/kg) it was 2.0 ± 0.0 h. In addition, the “t 1/2” value worked out at 1.77 ± 0.34 h in data set [1] (oral 0.1 mg/kg), 1.33 ± 0.09 h in data set [1] (oral 0.3 mg/kg), 1.64 ± 0.17 h in data set [1] (oral 1 mg/kg) and 1.30 ± 0.08 h in data set [1] (oral 3 mg/kg). The “AUC(0-.infin.)” value in data set [2] (iv, 0.3 mg/kg) stood at 816.28 ng eq·h/ml; in data set [2] (po, 1 mg/kg), 1039.86 ng eq·h/ml.
As for `Cc1ccc(N2CCNCC2)c(S(=O)(=O)O)c1` [Compound 2, 2-(1-piperazinyl)-5-methylbenzenesulfonic acid], in the data set on cardiac muscle cells, the “inhibition of the inflow of calcium ions into cardiac muscle cells (in words)” value is given as “remarkably inhibits”.
A word on the bioavailability: it is dose-corrected exposure relative to a reference, in per cent. A high value points to good availability. `Cc1ccc(N2CCNCC2)c(S(=O)(=O)O)c1.O` [Monohydrate, 5-methyl-2-(1-piperazinyl)benzenesulfonic acid monohydrate]: the “weight and appearance after further drying” value in data set [3] is given as “not changed”. In addition, in data set [4] (57% RH), the “weight increase, 0 day” value turned out to be 0.00%; the “weight increase, 1 day” value is 0.11%; the “weight increase, 3 days” value stood at 0.20%; the “weight increase, 16 days” value was 0.21%. In data set [4] (57% and 98% RH, 16 days), the “weight change (in words)” value was “No substantial weight change”. Further, in data set [4] (98% RH), the “weight increase, 0 day” value was 0.00%; the “weight increase, 1 day” value was determined as 0.28%; the “weight increase, 3 days” value is given as 0.40%; the “weight increase, 16 days” value turned out to be 0.39%. The “temperature from which weight loss and thermal absorption peak due to release of the water of crystal were observed” value in data set [5] is “around 60 °C”. Moreover, the “weight loss due to release of the water of crystal” value in data set [5] (50 to 400° C.) is given as 6.57%. In data set [6], the “serum concentration versus dose (in words)” value is reported as “linear direct proportion to the dose of administration”. For the same compound, the bioavailability in data set [2] (po, 1 mg/kg) was found to be 38%. Also, in data set [7] (ambient or reduced pressure), the “heating temperature at which water of crystal is gradually released” value is no less than 60 °C. Besides, the “stability (in words)” value in data set [7] (listed as monohydrate of 2-(1-piperazinyl)-5-methylbenzenesulfonic acid) was “stable at room temperature for a long period of time”. Further, the “stability (in words)” value in data set [7] was “stable and free from weight variation by hygroscopicity; also recorded: stable for a long period of time”.
In the case of `Cc1ccc(N2CCNCC2)c(S(=O)(=O)O)c1` [Anhydrous crystal, 2-(1-piperazinyl)-5-methylbenzenesulfonic acid, reference compound], in data set [4] (57% RH), the “weight increase, 0 day” value was 0.00%; the “weight increase, 1 day” value is 6.99%; the “weight increase, 3 days” value amounted to 7.08%; the “weight increase, 16 days” value was 6.89%. The “weight increase” value in data set [4] (57% and 98% RH, 16 days, about 1 mole of water of crystal) is on record as “about 7%”. Further, in data set [4] (98% RH), the “weight increase, 0 day” value is listed as 0.00%; the “weight increase, 1 day” value was determined as 7.35%; the “weight increase, 3 days” value stood at 7.36%; the “weight increase, 16 days” value stood at 7.12%. Besides, the “weight loss or thermal absorption peak due to release of the water of crystal (in words)” value in data set [5] (below 100° C.) is “no weight loss or no thermal absorption peak”. In data set [2] (po, 0.94 mg/kg), the “bioavailability, maximum value of fluctuation” value is on record as 43.72% and the “bioavailability, minimum value of fluctuation” value amounted to 33.03%.
